{"source": "patent US4622336A", "about": "“3,3-dialkyl-and 3,3-alkylene-indoline derivatives, processes for their production and pharmaceutical compositions comprising them” (Sandoz Ltd., priority 1982, dated 1986)", "key": {"[1]": {"tested_on": "inflamed rat-hind-paw", "test": "Randall-Selitto test on the inflamed rat-hind-paw (Test B)", "format": "in vivo", "conditions": "po", "procedure": "(B) the Randall-Selitto test on the inflamed rat-hind-paw [Arch. Int. Pharmacodyn. 61, 409-419 (1957)] at dosages of from 20 to 200 mg/kg p.o.."}, "[2]": {"tested_on": "arthritis pain in the rat", "test": "arthritis pain test in the rat (Test A)", "format": "in vivo", "conditions": "po", "procedure": "(A) the arthritis pain test in the rat [based on the method of A. W. Pircio et al., Eur. J. Pharmacol., 31, 207-215 (1975)] at dosages of from 3 to 50 mg/kg p.o.; and […]"}}, "data": [{"smiles": "CCOc1ccc2c(c1)C(C)(C)CN2", "note": "[I, 3,3-Dimethyl-5-ethoxy-indoline]", "values": [{"measurement": "ED50", "setting": "[1]", "value": 133, "unit": "mg/kg"}, {"measurement": "ED50", "setting": "[2]", "value": 18, "unit": "mg/kg"}]}, {"smiles": "CC(=O)Nc1ccc(O)cc1", "note": "[III, Paracetamol, reference compound]", "values": [{"measurement": "ED50", "setting": "[2]", "value": 174, "unit": "mg/kg"}]}, {"smiles": "CCOc1ccc2c(c1)NCC2(C)C", "note": "[II, 3,3-Dimethyl-6-ethoxy-indoline]", "values": [{"measurement": "ED50", "setting": "[1]", "value": 78, "unit": "mg/kg"}, {"measurement": "ED50", "setting": "[2]", "value": 7, "unit": "mg/kg"}]}]}
